# Data reported in US20250134860A1, “NOVEL COMPOUND, AND COMPOSITION FOR PREVENTING, ALLEVIATING OR TREATING BACTERIAL INFLAMMATION AND INFLAMMASOME-MEDIATED DISEASES, COMPRISING SAME AS ACTIVE INGREDIENT” (Quorum Bio Co., Ltd., priority 2022, published 2025).
# Where “and” joins values, the source holds several entries; their conditions need not be identical. Equal values may be shown once.
# Experiments:
# [1] = Plasma stability in human plasma (LC-MS/MS); assay type: in vitro ADME; settings: 37° C., 0, 30, 60, 120, 240 minutes
# Procedure: The compounds of Examples 1-2 and Comparative Example, and the substance used as the positive control (Eucatropine, Loterpresnol) were dissolved in DMSO to prepare a stock solution having a concentration of 10 mM. The stock solution of each test substance was then diluted to prepare 0.2 mM and 1 mM working solutions and used for the test (For the comparative example compound, 70% acetonitrile was used as a solvent, and for the compound of Example 1-2, 50% acetonitrile was used as a solvent).
# The positive control and the standard solution of the test substance were placed in tubes containing two types of plasma (human and rat) at concentrations of 1 μM and 5 μM, respectively, and then incubated at 37° C. for a prescribed time (0, 30, 60, 120, 240 minutes) while shaking and mixing. At each time point, the mixture sample was dispensed in 100 μl increments into a cell culture plate (96-well plate) containing 400 μl of quench reagent to terminate the test, After centrifugation (5000×g, 10 min), 100 μl of the supernatant was taken out, mixed with 200 μl of ultrapure water, and the solution was then injected into a LC-MS/MS system to analyze the drug in each time zone. Thereby, the plasma stability of the compounds of Comparative Example and Example 1-2 was evaluated.
# [2] = tested on: mouse bone marrow-derived macrophages; experiment: Cytotoxicity in mouse bone marrow-derived macrophages (MTT); assay type: cell-based; settings: at a concentration of 16 μM or less (0.5-16 μM tested), 24 hours
# Procedure: Bone marrow was isolated from the femur and tibia of 8-12 week old C57BL/6J mice (available from Daehan Biolink) using a 26 g syringe, and the isolated bone marrow was differentiated into macrophages by culturing a medium containing IMDM media+30% L929 cell supernatant+10% fetal bovine serum+1% pencillin/streptomycin+1% non-essential amino acid+1% sodium pyruvate in a 150TT cell culture plate for 6 days, and used for the experiment.
# The differentiated macrophages were seeded in 200 μl increments in a 48-well plate at a concentration of 1×10^6 cell/ml, and stabilized at 37° C. and 5% CO2 for 12 hours. […]
# Then, the supernatant of the cultured cells was removed, treated with 200 μl of MTT solution having a concentration of 400 μg/ml, and then reacted at […] and 5% CO2 for 4 hours. Then, the reaction solution was removed, 200 μl of DMSO was added, and the absorbance was measured at 570 nm. At this time, the viability of cells treated with the sample was calculated based on the viability of untreated cells considered as 100%, and is shown in FIG. 6. […]
# The supernatant of the cultured cells was then removed, 200 μl of MTT solution having a concentration of 400 μg/ml was added, and then reacted at […] and 5% CO2 for 4 hours. Then, the reaction solution was removed, 200 μl of DMSO was added, and the absorbance was measured at 570 nm. […]
# [3] = tested on: A. baumannii; experiment: Inhibitory effect on biofilm formation in A. baumannii; assay type: cell-based, Acinetobacter baumannii; settings: 0.006, 0.06, 0.6 μg/ml; 48 hours; compared with control (CT)
# Procedure: The inhibitory effect of the compound of Example 1-2 on biofilm formation in P. aeruginosa (available from the Korean Collection for Oral Microbiology (KCOM)) and A. baumannii (available from the Korea Culture Center of Microorganisms (KCCM)) was confirmed.
# Sterilized cover glass slips (round, 12 mm radius) were placed individually at a bottom of each well of a cell culture plate (24-well plate) using forceps, and the compound of Example 1-2 was diluted in the medium (P. aeruginosa: LB medium, A. baumannii: NB medium) cultured with bacteria so that the final concentrations were 0.006 μg/ml, 0.06 μg/ml, and 0.6 μg/ml.
# The prepared culture medium was dispensed into a cell culture plate in which glass slips were placed, and the respective bacteria were inoculated to a concentration of 2×10^7 cells/ml. […]
# The biofilm in which bacteria cultured for each group were formed on glass slips was stained with 1% crystal violet solution for 15 minutes, and then washed three times with PBS (phosphate buffered saline) solution, and decolorized with acetone-alcohol (20:80, vol/vol). After the decolorizing solution containing crystal violet was put in 200 μl increments in a 96-well microplate for each group, the absorbance (OD590nm) was measured using an absorbance microplate reader (Epoch2, Bio-Tek, USA), and the biofilm formation level was compared.
# [4] = General symptoms and body weight in the rat micronucleus study; assay type: in vivo
# Procedure: In addition, body weight was measured on the day of administration start and bone marrow collection to confirm presence/absence of changes due to administration of the substance, and the results are shown in Table 4 below.
compound,measurement,setting,value
"Cc1ccc(C(=C2c3ccccc3C(=O)N2C)c2ccc(C)cc2)cc1 [Example 1-2, 3-(di-p-tolylmethylene)-2-methylisoindolin-1-one]",amount of the compound remaining in the plasma,[1],remained stable
same,"cytotoxicity (cell viability, MTT)",[2],did not exhibit cytotoxicity
same,biofilm formation of A. baumannii,[3],significantly suppressed in a concentration-dependent manner
same,Body weight (g) before 1st dosing,"[4]; 500 mg/kg/day S.C., individual animals 1201-1205",263.4 g
same,Body weight (g) before 1st dosing,"[4]; 1,000 mg/kg/day S.C., individual animals 1301-1305",266.3 g and 251.3 g and 272.4 g
same,"Body weight (g) before 1st dosing, Mean","[4]; 2,000 mg/kg/day S.C., group mean",266.9 g
same,Body weight (g) before 1st dosing,"[4]; 2,000 mg/kg/day S.C., individual animals 1401-1405",266.2 g
same,change in body weight compared to the negative control,"[4]; all doses (500, 1000, 2000 mg/kg/day S.C.)",did not show a statistically significant change
same,clinical signs in rats,"[4]; all doses (500, 1000, 2000 mg/kg/day S.C.), observation period",no abnormal clinical signs
